One data set can be described thus: in vivo. Further details: species or system Male beagle dogs. As to conditions: dog, po. The source says: Water was given ad libitum.
Water was given ad libitum during the test period.
In this test, alginic acid gel beads prepared using the low viscosity alginic acid gel beads (IL2, Kimizu Chemicals) were used.

Another data set in a line: clinical. As to conditions: in vivo, po. Further details: species or system healthy human adults.

The structures appear in SMILES notation.

In general, AUC refers to concentration integrated over time. The term MRT denotes a mean duration of stay, worked out from the concentration-time curve. The term Tmax denotes the time at which the peak concentration occurs.

As for `CC(C)NCC(O)COc1cccc2[nH]ccc12` (stereo not shown) [Pindolol powder, pindolol], in “in vivo” (2.5 mg/kg), the AUC at 6 h was determined as 238 ng·h/mL and the MRT at 6 h was determined as 1.74 h. In “in vivo” (5 mg/kg), this compound came in with an area under the curve (AUC) at 12 h of 311 ng·h/mL and a mean residence time (MRT) at 12 h of 1.98 h. Besides, in “clinical” (human), the MRT amounted to 3.82 ± 0.32 h and the time to peak (Tmax) is around 1 h. In “clinical”, the VRT turned out to be 7.44 ± 0.54 h^2.

For the origin of these results see patent US5302399A, “Slow-releasing pharmaceuticals prepared with alginic acid” (Snow Brand Milk Products Co., Ltd., priority 1988, dated 1994).
